Measurements taken from publication doi:10.1101/2022.01.03.474871v1 (biorxiv, 2022).

Key:
[1] = biological target: T1, RpfC (full-length, in liposomes) (Xanthomonas campestris, UniProt P0C0F7); test: […] autophosphorylation assay, RpfC liposomes; type: biochemical; details: activation of autokinase; 100 µM ATP, pH 7.8, 5 mM MgCl2, 28 °C
[2] = biological target: T1, RpfC (full-length, in liposomes); test: label-free microscale thermophoresis, RpfC liposomes; type: binding; details: 50 mM Tris-HCl pH 7.8, 150 mM NaCl, 10 mM MgCl2, 0.1% Pluronic F-127

T1 sequence (P0C0F7 whole entry): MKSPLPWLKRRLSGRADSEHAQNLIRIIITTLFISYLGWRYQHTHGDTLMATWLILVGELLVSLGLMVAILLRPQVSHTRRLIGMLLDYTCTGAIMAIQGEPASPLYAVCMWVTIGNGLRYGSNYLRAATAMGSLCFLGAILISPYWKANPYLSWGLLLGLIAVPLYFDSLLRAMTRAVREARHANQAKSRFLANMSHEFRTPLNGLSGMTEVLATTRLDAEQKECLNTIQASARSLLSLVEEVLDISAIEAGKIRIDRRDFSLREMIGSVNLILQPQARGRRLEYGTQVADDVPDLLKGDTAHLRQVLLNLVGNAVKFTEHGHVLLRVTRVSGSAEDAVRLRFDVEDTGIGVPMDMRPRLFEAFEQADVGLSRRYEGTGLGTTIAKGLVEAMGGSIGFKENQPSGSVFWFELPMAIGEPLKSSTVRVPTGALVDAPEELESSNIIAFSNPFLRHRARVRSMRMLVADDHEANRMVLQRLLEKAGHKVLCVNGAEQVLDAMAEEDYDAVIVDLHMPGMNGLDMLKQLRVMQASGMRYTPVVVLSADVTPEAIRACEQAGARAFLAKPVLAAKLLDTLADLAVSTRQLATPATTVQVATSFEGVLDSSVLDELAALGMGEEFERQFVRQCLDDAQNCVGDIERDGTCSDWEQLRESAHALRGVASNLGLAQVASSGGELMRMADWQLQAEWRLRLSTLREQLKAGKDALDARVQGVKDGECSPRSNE

| SMILES | EC50 [1] [nM] | Kd [2] [nM] |
| --- | --- | --- |
| CCCCCCCCC/C=C\C(=O)O [BDSF, cis-2-dodecenoic acid] | ~60 |  |
| CCCCCCCCC/C=C/C(=O)O [trans-BDSF] | 1110 | 11200 ± 950 |
